From ChEMBL document CHEMBL1201862, “PubChem BioAssay data set” (2004)
One block for each compound: values may come before it. Activity calls are given as the source filed them.

Key:
Escherichia coli = assay: microbe, parasite or virus in culture
Phospholipase D1 = Phospholipase D1 (Homo sapiens, UniProt Q13393); assay: cellular phospholipase D1 inhibition IC50 – cell-based, dose response (AID 602151); type: functional;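 further: cellular PLD1 assay in Calu-1 cells stimulated with PMA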
Phospholipase D2 = Phospholipase D2 (Homo sapiens, UniProt O14939); assay: cellular phospholipase D2 inhibition IC50 – cell-based, dose response (AID 602147); type: functional;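 further: cellular assay in HEK293 cells overexpressing GFP-tagged PLD2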
[1] = molecular target: T1, Short transient receptor potential channel 4 (Mus musculus, UniProt Q9QUQ5); assay: potency of mouse TRPC4 calcium flux blockers – cell-based, HEK293 TRPC4/mu-opioid, DAMGO stimulus, Fluo-4, dose response (AID 492994); type: functional
T1 sequence (Q9QUQ5 whole entry): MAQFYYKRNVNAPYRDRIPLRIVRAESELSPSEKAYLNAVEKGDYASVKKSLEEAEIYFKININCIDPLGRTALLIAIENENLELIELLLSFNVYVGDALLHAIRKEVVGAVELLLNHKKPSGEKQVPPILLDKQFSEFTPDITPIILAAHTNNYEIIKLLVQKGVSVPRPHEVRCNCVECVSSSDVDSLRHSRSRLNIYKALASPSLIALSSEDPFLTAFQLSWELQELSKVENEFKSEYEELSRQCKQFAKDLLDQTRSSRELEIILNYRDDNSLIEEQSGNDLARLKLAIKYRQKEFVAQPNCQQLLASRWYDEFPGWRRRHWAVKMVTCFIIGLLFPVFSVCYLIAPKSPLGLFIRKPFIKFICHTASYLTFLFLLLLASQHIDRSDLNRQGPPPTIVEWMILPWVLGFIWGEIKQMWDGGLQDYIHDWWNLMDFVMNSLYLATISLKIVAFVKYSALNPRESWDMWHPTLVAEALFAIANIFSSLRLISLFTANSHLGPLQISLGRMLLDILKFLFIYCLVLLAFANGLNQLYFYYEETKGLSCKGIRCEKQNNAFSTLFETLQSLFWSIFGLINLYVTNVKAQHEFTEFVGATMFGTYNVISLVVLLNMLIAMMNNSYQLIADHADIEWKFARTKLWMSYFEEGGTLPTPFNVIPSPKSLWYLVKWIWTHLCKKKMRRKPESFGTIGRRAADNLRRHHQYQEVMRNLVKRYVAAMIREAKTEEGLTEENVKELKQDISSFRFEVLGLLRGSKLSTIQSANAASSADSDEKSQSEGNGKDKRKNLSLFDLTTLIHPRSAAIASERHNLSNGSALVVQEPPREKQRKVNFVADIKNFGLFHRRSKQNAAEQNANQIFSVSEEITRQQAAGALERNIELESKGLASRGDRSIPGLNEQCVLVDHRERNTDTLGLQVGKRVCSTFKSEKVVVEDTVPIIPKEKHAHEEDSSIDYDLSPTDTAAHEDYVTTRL

[2] = molecular target: Short transient receptor potential channel 6 (Mus musculus, UniProt Q61143); assay: mouse TRPC6 channel blockers, concentration series – HEK293 cells, membrane potential dye, IC50, selectivity assay for selective TRPC4 inhibitor project, dose response (AID 492987); type: functional, cell-based
[3] = molecular target: Beta-2 adrenergic receptor (Homo sapiens, UniProt P07550); assay: ADRB2 activation measured by internalization – cell-based, FAP fluorogen, flow cytometry, cherry pick 1, dose response (AID 588763); type: functional
[4] = molecular target: G-protein coupled receptor 55 (Homo sapiens, UniProt Q9Y2T6); assay: blockers of GPR55 signalling, imaged – imaging, image-based, counter-screen for GPR35 antagonist project, SAR follow-up (AID 2397); type: functional
[5] = molecular target: T2, G-protein coupled receptor 35 (Homo sapiens, UniProt Q9HC97); assay: SAR Analysis for the identification of Selective Antagonists of ERK1/2 Activity in GPR35-Overexpressing U2OS Cells. [Related pubchem assays: 2079, 2058 ]; type: functional, cell-based
[6] = molecular target: T2, G-protein coupled receptor 35; assay: inhibition of zaprinast-stimulated GPR35 beta-arrestin translocation – imaging, U2OS, beta-arrestin-GFP, zaprinast agonist, primary screen (AID 2058); type: functional;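 further: antagonist potency meaning inhibition of agonist-induced arrestin redistribution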
Hexokinase HKDC1 = molecular target: T3, Hexokinase HKDC1 (Homo sapiens, UniProt Q2TB90); assay: SAR analysis of small molecule inhibitors of hexokinase domain containing I (HKDC1). [Related pubchem assays (depositor defined):AID493160, AID493190]; type: functional
T3 sequence (Q2TB90 whole entry): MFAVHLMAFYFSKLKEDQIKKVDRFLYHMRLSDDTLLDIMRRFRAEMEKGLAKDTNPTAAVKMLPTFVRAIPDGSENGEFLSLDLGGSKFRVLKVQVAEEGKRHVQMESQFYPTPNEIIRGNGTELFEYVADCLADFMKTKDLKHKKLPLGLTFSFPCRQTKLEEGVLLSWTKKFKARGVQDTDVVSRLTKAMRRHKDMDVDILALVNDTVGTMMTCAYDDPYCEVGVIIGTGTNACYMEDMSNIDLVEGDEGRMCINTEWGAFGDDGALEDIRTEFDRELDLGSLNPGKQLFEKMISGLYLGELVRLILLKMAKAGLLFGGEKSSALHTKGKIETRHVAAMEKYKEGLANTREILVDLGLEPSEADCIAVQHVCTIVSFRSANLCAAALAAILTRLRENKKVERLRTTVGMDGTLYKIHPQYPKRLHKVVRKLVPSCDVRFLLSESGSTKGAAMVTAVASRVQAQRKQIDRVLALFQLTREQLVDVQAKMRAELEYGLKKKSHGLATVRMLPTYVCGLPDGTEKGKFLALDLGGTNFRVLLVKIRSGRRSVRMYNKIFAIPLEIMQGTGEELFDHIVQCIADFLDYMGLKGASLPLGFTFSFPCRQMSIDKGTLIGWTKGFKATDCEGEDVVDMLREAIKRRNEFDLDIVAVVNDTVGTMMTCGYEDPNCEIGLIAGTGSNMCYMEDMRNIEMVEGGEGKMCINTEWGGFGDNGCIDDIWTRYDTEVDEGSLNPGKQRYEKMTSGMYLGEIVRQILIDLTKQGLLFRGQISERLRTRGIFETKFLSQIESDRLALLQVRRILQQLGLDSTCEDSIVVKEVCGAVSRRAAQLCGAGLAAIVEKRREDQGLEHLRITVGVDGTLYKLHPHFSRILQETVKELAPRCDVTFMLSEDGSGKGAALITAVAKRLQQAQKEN

Hexokinase-1 = Hexokinase-1 (Homo sapiens, UniProt P19367); assay: SAR analysis of small molecule inhibitors of hexokinase domain containing I (HKDC1) in the hexokinase 1 selectivity assay. [Related pubchem assays (depositor defined):AID493160, AID493190]; type: functional
[7] = molecular target: T4, Sentrin-specific protease 8 (Homo sapiens, UniProt Q96LD8); type: functional;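 further: luminescence read-out of SENP8 inhibition, dose-response confirmation following an ultra-high-throughput screen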
T4 sequence (Q96LD8 whole entry): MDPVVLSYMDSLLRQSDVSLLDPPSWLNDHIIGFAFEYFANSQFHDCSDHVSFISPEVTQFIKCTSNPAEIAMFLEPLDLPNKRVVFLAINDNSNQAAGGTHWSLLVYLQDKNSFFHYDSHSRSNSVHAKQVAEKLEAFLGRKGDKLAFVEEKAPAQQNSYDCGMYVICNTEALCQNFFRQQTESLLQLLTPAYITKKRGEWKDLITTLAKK

HEK293 [8] = assay: cells; conditions: Homo sapiens
[9] = molecular target: T5, Sentrin-specific protease 7 (Homo sapiens, UniProt Q9BQF6); type: functional;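 further: Luminescence-based dose-response confirmation of ultra-high-throughput screening hits, measuring inhibition of SENP7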
T5 sequence (Q9BQF6 whole entry): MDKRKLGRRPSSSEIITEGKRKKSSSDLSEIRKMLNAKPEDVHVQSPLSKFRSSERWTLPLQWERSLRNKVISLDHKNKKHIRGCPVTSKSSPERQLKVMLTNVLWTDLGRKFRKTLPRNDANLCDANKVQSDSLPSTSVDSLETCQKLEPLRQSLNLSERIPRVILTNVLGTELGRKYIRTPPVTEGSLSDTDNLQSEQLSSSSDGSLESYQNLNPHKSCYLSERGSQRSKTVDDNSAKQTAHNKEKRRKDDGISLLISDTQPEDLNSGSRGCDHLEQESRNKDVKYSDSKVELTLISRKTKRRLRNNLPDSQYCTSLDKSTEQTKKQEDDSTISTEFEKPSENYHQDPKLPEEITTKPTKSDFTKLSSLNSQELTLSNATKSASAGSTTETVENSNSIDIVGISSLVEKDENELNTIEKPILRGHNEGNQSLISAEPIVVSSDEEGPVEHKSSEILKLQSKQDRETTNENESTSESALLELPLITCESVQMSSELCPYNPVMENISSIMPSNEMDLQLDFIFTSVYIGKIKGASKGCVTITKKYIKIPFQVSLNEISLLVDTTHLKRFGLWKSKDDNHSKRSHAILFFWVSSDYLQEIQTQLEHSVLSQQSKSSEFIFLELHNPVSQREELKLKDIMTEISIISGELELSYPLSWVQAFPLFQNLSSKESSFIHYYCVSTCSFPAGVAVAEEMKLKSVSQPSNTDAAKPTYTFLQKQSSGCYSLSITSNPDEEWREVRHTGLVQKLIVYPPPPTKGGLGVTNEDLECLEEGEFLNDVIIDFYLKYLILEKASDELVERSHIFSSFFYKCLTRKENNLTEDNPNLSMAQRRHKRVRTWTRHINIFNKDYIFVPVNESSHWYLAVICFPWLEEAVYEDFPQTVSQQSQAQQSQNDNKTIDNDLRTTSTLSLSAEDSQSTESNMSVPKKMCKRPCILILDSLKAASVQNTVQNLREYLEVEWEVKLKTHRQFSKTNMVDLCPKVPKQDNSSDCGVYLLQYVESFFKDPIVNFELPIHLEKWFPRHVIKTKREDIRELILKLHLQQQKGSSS

HEK293 [10] = assay: cells; conditions: Homo sapiens; remark: listed apart in the source
[11] = molecular target: T6, Sentrin-specific protease 6 (Homo sapiens, UniProt Q9GZR1); type: functional;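 further: Luminescence-based dose-response confirmatory assay of SENP6 inhibition, following up an ultra-high-throughput screen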
T6 sequence (Q9GZR1 whole entry): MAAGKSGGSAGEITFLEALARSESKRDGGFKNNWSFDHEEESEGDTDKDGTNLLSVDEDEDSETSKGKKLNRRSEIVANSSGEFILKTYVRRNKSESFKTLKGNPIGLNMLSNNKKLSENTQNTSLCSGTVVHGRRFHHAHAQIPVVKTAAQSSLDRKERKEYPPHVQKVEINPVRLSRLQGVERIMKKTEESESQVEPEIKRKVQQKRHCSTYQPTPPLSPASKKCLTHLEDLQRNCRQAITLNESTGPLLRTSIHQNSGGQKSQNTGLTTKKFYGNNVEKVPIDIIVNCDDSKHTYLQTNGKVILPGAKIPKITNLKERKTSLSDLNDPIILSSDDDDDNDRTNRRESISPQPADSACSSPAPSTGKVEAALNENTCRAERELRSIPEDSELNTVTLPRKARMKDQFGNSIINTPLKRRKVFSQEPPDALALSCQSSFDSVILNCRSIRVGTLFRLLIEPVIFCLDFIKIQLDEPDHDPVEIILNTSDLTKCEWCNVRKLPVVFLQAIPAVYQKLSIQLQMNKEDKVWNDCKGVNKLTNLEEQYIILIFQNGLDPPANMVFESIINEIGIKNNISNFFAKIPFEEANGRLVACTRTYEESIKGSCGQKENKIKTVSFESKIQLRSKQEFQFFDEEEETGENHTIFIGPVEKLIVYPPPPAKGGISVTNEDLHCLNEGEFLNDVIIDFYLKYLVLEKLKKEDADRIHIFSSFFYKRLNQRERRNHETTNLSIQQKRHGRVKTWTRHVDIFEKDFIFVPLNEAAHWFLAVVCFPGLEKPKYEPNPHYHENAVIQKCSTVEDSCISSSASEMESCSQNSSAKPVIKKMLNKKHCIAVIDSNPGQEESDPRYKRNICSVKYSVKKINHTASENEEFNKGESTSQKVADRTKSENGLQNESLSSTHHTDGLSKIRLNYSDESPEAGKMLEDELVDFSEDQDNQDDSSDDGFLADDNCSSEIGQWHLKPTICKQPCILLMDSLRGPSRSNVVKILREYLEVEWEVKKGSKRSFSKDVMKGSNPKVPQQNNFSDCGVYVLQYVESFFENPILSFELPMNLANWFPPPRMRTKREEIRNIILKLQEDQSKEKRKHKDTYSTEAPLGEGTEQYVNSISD

Caspase-3 = molecular target: T7, Caspase-3 (Homo sapiens, UniProt P42574); type: functional;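 further: Dose-response selectivity test against caspase-3 for candidate inhibitors of sentrin-specific proteases (SENPs)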
T7 sequence (P42574 whole entry): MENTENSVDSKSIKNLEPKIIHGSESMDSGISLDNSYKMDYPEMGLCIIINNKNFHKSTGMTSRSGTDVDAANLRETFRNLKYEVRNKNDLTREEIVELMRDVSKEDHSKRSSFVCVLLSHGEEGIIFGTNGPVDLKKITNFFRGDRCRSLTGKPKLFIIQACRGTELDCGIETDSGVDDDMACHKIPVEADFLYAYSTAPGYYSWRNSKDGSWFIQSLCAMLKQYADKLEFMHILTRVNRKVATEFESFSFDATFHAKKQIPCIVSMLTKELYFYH

T2 sequence (Q9HC97 whole entry): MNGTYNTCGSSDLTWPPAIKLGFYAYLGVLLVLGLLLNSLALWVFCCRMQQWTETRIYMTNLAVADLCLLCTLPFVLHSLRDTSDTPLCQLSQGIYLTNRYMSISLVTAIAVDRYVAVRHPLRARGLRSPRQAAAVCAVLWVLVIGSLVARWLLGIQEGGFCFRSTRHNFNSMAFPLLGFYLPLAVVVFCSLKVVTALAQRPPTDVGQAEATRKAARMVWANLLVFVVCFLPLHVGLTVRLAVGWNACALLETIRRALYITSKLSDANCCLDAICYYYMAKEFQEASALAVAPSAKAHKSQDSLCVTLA
G-protein coupled receptor 55, sequence (Q9Y2T6 whole entry): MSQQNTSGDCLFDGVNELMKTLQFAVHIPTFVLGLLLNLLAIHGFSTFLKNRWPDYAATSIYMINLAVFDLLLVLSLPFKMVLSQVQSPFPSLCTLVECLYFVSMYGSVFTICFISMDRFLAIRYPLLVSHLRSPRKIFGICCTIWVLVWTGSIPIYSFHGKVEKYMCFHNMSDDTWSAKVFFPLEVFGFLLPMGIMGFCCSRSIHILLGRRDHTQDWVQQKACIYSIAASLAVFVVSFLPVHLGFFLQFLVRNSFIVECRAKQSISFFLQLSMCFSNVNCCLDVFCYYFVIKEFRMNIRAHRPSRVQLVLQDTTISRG
Phospholipase D1, sequence (Q13393 whole entry): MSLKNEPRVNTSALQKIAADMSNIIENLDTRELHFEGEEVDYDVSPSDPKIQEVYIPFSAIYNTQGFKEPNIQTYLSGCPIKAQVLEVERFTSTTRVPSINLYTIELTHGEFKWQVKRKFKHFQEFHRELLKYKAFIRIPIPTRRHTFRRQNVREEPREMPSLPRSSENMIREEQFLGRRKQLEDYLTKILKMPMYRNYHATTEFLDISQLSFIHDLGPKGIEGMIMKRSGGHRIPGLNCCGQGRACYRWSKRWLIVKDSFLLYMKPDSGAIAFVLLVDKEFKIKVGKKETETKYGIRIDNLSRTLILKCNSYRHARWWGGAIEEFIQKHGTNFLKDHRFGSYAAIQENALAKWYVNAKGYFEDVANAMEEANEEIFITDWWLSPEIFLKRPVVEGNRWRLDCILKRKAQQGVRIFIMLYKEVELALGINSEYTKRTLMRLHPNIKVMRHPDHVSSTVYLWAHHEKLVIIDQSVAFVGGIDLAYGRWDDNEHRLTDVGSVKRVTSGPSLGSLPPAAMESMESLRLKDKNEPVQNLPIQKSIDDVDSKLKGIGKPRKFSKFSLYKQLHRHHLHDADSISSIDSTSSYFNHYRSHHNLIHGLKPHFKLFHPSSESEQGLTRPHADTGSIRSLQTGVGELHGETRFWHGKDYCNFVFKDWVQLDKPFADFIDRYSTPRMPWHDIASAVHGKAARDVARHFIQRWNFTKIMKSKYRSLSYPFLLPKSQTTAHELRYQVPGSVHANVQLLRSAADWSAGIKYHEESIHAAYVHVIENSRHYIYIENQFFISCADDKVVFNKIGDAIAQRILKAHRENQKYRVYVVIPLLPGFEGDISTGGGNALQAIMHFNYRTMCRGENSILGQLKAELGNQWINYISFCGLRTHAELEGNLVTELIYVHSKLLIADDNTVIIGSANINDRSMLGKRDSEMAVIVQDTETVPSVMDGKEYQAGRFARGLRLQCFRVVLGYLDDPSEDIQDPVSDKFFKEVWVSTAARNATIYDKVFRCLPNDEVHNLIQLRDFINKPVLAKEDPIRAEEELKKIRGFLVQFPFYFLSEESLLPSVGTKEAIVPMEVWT
Hexokinase-1, sequence (P19367 whole entry, the tested form may be a part): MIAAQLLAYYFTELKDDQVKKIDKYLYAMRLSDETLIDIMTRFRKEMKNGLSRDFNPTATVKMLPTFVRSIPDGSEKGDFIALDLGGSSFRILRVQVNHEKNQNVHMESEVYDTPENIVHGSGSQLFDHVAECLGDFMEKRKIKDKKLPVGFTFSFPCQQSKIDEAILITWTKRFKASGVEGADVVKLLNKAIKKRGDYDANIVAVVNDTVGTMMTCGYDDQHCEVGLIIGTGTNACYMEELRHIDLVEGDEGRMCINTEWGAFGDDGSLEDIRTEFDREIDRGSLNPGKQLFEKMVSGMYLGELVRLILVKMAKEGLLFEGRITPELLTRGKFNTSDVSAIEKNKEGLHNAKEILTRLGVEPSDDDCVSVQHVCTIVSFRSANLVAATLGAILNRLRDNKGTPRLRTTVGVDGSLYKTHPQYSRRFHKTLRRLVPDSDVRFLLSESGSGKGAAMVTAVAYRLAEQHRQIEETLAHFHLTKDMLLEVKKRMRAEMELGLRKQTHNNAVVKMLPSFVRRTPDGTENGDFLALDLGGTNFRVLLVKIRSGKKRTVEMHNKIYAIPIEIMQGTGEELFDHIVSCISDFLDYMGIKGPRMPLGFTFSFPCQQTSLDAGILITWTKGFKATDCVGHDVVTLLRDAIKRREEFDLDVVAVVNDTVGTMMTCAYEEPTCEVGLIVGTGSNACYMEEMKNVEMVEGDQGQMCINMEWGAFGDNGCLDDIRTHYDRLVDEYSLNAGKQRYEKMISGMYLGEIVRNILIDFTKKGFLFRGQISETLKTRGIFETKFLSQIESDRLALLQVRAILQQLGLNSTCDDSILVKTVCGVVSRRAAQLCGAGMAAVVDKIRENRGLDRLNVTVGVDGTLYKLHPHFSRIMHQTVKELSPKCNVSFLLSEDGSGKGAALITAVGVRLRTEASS
Beta-2 adrenergic receptor, sequence (P07550 whole entry): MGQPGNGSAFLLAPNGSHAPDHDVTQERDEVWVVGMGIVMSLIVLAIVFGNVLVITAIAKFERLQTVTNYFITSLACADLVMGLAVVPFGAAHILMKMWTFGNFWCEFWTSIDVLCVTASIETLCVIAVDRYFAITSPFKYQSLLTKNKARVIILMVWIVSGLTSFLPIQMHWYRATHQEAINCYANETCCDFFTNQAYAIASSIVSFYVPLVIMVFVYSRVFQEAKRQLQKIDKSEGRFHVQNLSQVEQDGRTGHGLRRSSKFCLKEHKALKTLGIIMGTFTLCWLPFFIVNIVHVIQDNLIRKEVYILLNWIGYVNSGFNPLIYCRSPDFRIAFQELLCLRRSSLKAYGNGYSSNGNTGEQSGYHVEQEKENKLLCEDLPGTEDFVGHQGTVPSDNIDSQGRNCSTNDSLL
Short transient receptor potential channel 6, sequence (Q61143 whole entry): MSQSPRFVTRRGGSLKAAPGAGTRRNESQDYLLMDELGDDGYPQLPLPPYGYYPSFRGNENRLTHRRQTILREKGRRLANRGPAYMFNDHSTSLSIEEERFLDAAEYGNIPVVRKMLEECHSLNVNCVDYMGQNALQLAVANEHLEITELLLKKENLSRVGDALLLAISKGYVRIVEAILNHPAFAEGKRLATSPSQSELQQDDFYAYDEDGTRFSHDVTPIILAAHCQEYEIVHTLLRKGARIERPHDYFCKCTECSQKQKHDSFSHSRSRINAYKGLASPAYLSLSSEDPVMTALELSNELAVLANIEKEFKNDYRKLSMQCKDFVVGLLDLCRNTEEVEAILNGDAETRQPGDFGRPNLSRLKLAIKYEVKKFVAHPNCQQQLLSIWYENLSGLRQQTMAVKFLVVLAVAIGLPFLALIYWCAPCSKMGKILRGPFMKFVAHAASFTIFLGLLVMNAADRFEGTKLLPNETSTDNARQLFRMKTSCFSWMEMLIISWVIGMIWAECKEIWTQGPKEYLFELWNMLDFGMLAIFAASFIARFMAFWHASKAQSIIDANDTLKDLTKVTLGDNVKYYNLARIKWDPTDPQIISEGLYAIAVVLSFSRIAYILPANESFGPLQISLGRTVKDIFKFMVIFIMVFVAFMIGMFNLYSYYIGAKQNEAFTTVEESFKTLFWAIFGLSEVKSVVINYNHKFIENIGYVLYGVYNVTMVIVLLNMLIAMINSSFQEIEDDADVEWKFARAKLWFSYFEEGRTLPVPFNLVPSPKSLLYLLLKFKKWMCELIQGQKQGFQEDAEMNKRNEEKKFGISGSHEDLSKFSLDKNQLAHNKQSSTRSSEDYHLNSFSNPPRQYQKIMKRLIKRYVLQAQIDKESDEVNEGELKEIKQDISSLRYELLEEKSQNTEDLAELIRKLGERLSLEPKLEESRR
Phospholipase D2, sequence (O14939 whole entry): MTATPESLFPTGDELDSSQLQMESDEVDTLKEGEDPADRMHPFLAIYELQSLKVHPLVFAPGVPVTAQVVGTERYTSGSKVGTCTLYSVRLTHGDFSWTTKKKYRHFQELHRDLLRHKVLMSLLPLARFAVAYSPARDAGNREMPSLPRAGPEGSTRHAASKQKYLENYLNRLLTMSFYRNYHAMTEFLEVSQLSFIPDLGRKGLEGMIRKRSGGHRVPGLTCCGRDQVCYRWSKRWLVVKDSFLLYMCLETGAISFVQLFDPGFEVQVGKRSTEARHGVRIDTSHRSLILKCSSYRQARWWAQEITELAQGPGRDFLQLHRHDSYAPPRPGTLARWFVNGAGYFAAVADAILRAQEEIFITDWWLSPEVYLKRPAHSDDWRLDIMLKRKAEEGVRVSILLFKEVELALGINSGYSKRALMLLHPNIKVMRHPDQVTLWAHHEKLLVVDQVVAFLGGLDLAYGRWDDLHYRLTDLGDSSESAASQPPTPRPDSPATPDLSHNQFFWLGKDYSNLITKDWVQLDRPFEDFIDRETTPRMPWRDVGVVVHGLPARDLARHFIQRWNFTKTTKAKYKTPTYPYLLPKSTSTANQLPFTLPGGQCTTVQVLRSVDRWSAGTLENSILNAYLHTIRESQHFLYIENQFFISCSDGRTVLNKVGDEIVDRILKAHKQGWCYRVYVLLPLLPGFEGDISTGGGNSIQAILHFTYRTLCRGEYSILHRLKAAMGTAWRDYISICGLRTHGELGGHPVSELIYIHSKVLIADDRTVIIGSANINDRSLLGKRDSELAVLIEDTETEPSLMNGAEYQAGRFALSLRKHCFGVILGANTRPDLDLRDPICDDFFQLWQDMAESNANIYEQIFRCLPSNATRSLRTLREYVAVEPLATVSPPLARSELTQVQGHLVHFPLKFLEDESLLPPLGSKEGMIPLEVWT

Structure (SMILES): CCOC(=O)c1cc(C)sc1NC(=O)C(c1ccccc1)c1ccccc1
- AC50 (Escherichia coli): 123 µM (active)

Structure (SMILES): O=C(NCCN1CCC2(CC1)C(=O)NCN2c1cccc(F)c1)c1ccc(F)nc1
- IC50 (Phospholipase D1): 17 µM (active)
- IC50 (Phospholipase D2): 0.385 µM (active)

- IC50 [1]: 31.9 µM (active)
- IC50 [2]: 16.9 µM (active)
Structure (SMILES): Cc1cc(N2CCC(N3CCOCC3)CC2)nc2ccccc12

- EC50 [3]: 1.74 µM (active)
- IC50 [4]: > 32 µM (inactive)
- IC50 [5]: 16.5 µM (not active)
- IC50 [6]: 0.768 µM (active)
Structure (SMILES): O=C(Nc1ccc2nc(SCc3ccc(Cl)cc3)sc2c1)c1ccccc1C(=O)N1CCOCC1

- IC50 (Hexokinase HKDC1): > 80 µM (inactive)
- IC50 (Hexokinase-1): > 80 µM (inactive)
Structure (SMILES): O=c1c2ccccc2nc(/C=C/c2cccc(Br)c2)n1Cc1ccccc1

Structure (SMILES): COc1cc(C#Cc2ccc3cc(CCCO)oc(=O)c3c2)cc(OC)c1
- IC50 [7]: 10.6 µM (active)
- EC50 (HEK293 [8]): > 59.6 µM (inactive)
- IC50 [9]: 2.81 µM (active)
- EC50 (HEK293 [10]): > 59.6 µM (inactive)
- IC50 [11]: 7.16 µM (active)
- IC50 (Caspase-3): 21 µM (active)
